The target in one experiment is human NOP receptor (Homo sapiens, UniProt P41146). Briefly: Calcium mobilization in CHO cells expressing human NOP receptor and Gαqi5. The format is cell-based. The following applies: inactive = inactive up to 1 μM. As to the method: (§1) Cells were maintained in culture medium consisting of Dulbecco's MEM/HAM'S F-12 (50/50) supplemented with 10% foetal calf serum, penicillin (100 IU/ml), streptomycin (100 μg/ml), fungizone (2.5 μg/ml), geneticin (G418; 200 μg/ml) and hygromycin B (200 mg/ml). Cell cultures were kept at 37° C. in 5% CO2 humidified air. In all cases experimental cultures were free from selection agents (hygromycin B, G418). When confluence was reached (3-4 days), cells were sub-cultured as required using trypsin EDTA and used for experimentation. Cells were seeded at a density of 50,000 cells/well into 96-well black, clear-bottom plates. After 24 hours incubation the cells were loaded with medium supplemented with 2.5 mM probenecid, 3 μM of the calcium sensitive fluorescent dye Fluo-4 AM and 0.01% pluronic acid, for 30 min at 37° C. Afterwards the loading solution was aspirated and 100 μl/well of assay buffer: Hank's Balanced Salt Solution (HBSS) supplemented with 20 mM HEPES, 2.5 mM probenecid and 500 μM Brilliant Black (Aldrich) was added. […] On-line additions were carried out in a volume of 50 μl/well. To facilitate drug diffusion into the wells in antagonist type experiments, the present studies were performed at 37° C. and three cycles of mixing (25 μl from each well moved up and down 3 times) were performed immediately after antagonist injection to the wells.
(§2) Four mice were monitored in parallel. […] Animals locomotion was recorded for 60 min.
On the technique in general: Calcium flux is commonly read through the fluorescence of an indicator in the cells.

A further experiment addresses T1, DOP receptor (Homo sapiens, UniProt P41143).
T1 construct: expressed in transfected cells; host or cells: CHO cells co-expressing GαqG66Di5
Briefly: Calcium mobilization in CHO cells expressing DOP receptor and GαqG66Di5. The experiment is classed as cell-based. As to the method: as §1, with “Cell” for “Cells were maintained in culture medium consisting of Dulbecco's MEM/HAM'S F-12 (50/50) supplemented with 10% foetal calf serum, penicillin (100 IU/ml), streptomycin (100 μg/ml), fungizone (2.5 μg/ml), geneticin (G418; 200 μg/ml) and hygromycin B (200 mg/ml). Cell”
as §2

The target of another experiment is KOP receptor (Homo sapiens, UniProt P41145). Briefly: Calcium mobilization in CHO cells expressing KOP receptor and Gαqi5. The following applies: inactive = inactive up to 1 μM. The experiment is classed as cell-based. As to the method: as §1, with “To facilitate drug diffusion into the wells in antagonist type experiments, the present studies were performed at 37° C. and three cycles of mixing (25 μl from each well moved up and down 3 times) were performed immediately after antagonist injection to the wells.” left out
as §2

Experiment [1] deals with electrically stimulated mouse vas deferens. Briefly: Electrically stimulated mouse vas deferens. The procedure: The bath temperature was set at 33° C. Tissues were continuously stimulated through two platinum ring electrodes with supramaximal rectangular pulses of 1 ms duration and 0.05 Hz frequency. A resting tension of 0.3 g was applied to the vas deferens.
assuming a slope value equal to unity, where CR indicate the ratio between agonist potency in the presence and absence of antagonist.

For experiment [2] the test system is unchanged. The following applies: versus N/OFQ; Spagnolo et al. 2007; cited from earlier work.
The target in the next experiment is MOP receptor (Homo sapiens, UniProt P35372). Briefly: Calcium mobilization in CHO cells expressing MOP receptor and Gαqi5. The format is cell-based. As to conditions: inactive = inactive up to 1 μM. The procedure:
as §1, with “Cell” for “Cells were maintained in culture medium consisting of Dulbecco's MEM/HAM'S F-12 (50/50) supplemented with 10% foetal calf serum, penicillin (100 IU/ml), streptomycin (100 μg/ml), fungizone (2.5 μg/ml), geneticin (G418; 200 μg/ml) and hygromycin B (200 mg/ml). Cell”
as §2

The subject of experiment [3] is vas deferens tissues taken from NOP(+/+) mice. Briefly: Electrically stimulated vas deferens from NOP(+/+) mice. More on the design: species or system mouse.
Method: The bath temperature was set at 33° C. Tissues were continuously stimulated through two platinum ring electrodes with supramaximal rectangular pulses of 1 ms duration and 0.05 Hz frequency. A resting tension of 0.3 g was applied to the vas deferens. […] Following an equilibration period of 60 min, the contractions induced by electrical field stimulation were stable.
The subject of experiment [4] is vas deferens tissues taken from NOP(−/−) mice. Put plainly: Electrically stimulated vas deferens from NOP(−/−) mice. Set-up: species or system mouse. The procedure: The mouse vas deferens were prepared as previously described (Calto et al., Eur J Pharmacol. 311, (1996) R3-5). Tissues were suspended in 5 ml organ baths containing heated Krebs solution (composition in mM: NaCl 118.5, KCl 4.7, KH2PO4 1.2, NaHCO3 25, glucose 10 and CaCl2 2.5) oxygenated with 95% O2 and 5% CO2. The bath temperature was set at 33° C. Tissues were continuously stimulated through two platinum ring electrodes with supramaximal rectangular pulses of 1 ms duration and 0.05 Hz frequency. A resting tension of 0.3 g was applied to the vas deferens. The electrically evoked contractions (twitches) were measured isotonically with a strain gauge transducer (Basile 7006, UgoBasile s.r.l., Varese, Italy) and recorded with the PC based acquisition system Power Lab (ADInstrument, USA). Following an equilibration period of 60 min, the contractions induced by electrical field stimulation were stable.

Sequence of human NOP receptor (P41146 whole entry): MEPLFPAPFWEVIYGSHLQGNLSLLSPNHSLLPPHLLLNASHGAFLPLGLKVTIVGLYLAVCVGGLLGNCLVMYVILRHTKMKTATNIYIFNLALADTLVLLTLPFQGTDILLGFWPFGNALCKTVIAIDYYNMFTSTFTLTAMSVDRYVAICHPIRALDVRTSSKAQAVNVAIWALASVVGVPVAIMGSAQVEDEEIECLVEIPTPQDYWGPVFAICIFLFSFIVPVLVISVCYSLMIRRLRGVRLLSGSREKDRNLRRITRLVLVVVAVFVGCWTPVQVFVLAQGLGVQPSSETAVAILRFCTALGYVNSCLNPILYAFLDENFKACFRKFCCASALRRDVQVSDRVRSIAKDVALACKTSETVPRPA
T1 sequence (P41143 whole entry): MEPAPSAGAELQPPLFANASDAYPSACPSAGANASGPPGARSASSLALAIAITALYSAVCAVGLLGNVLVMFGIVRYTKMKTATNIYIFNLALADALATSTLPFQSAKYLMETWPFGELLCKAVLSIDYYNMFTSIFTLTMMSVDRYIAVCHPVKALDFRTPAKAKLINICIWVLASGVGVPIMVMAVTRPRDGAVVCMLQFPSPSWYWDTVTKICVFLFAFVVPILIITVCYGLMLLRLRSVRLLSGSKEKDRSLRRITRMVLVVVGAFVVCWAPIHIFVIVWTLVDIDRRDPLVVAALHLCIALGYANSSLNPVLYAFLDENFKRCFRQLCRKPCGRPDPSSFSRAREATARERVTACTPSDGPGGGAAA
Sequence of KOP receptor (P41145 whole entry, the tested form may be a part): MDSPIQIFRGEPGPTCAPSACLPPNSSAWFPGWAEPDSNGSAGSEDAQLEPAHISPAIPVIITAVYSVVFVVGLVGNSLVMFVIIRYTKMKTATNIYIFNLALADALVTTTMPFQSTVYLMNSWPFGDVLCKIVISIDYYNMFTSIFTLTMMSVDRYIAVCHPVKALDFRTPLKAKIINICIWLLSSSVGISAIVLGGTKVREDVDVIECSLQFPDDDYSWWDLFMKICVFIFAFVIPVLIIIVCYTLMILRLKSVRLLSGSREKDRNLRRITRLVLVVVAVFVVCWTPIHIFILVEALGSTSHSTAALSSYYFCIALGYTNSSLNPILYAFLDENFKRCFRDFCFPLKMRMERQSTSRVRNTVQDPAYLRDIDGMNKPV
Sequence of MOP receptor (P35372 whole entry): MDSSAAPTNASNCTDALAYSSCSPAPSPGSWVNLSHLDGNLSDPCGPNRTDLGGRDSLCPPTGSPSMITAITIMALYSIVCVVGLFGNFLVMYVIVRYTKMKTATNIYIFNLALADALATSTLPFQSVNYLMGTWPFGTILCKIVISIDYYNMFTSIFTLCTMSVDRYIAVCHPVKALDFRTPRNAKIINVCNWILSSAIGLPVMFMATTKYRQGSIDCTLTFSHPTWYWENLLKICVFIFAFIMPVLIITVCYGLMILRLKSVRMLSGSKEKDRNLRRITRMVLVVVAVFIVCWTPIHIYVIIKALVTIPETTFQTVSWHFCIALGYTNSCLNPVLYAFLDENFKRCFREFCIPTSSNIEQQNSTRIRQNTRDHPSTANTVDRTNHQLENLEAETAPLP

For `C[C@@H](NC(=O)[C@@H](N)Cc1ccc(O)cc1)C(=O)N[C@@H](Cc1ccccc1)C(=O)NCC(=O)N[C@@H](Cc1ccc(O)cc1)C(=O)N1CCC[C@H]1C(=O)N[C@@H](CO)C(N)=O` [Dermorphin], on human NOP receptor, the “pEC50 (CL95%)” value was “inactive”. Besides, the pEC50 entry on DOP receptor (inactive = inactive up to 1 μM) and at KOP receptor was “inactive” in each case.

Consider `Cc1cccc2c1CC[C@H](CN1CCC(c3c(Cl)cccc3Cl)CC1)C[C@@H]2O` [SB-612111, reference compound], for which, in experiment [1] (100 nM), the “effect per se on control twitches” value is listed as “did not modify per se the control twitches”. Besides, the Kb in experiment [1] (Mus musculus, read-out: SB-612111 pKB (CL95%), SB-612111 100 nM versus N/OFQ (converted)) is 3.31 nM. Besides, in experiment [2], the “SB-612111 pKB, literature” value is listed as 8.50.

With DPDPE, the “pEC50 (CL95%)” value on human NOP receptor was “inactive”. For the same molecule, the pEC50 (commonly the negative decadic logarithm of the EC50, by convention in mol/L) is “inactive” at MOP receptor, “inactive” on KOP receptor, 8.45 (8.19-8.71) in experiment [3] (CL95% in brackets) and 8.42 (8.16-8.68) in experiment [4] (CL95% in brackets). For the same molecule, on DOP receptor, the maximal effects is given as 86±14%. The Emax amounted to 91 ± 3% in experiment [3] (maximal inhibition of electrically induced contractions) and 94 ± 3 in experiment [4].

As to Dynorphin A, the “pEC50 (CL95%)” value at human NOP receptor is “inactive”.

Values taken from US9962447B2, “Supramolecular aggregates comprising maleimido cores” (UFPEPTIDES S.R.L., priority 2013, dated 2018).
